Results on 9 molecules are retold here after US10004701B2, “Methods and compositions for treating infection” (UNIVERSITY OF ROCHESTER, priority 2012, dated 2018).

Structures can show the parent of a compound that is named as a salt. Where two headings read alike, the source gives them in different places.

Holding throughout (test): AK assay 384-well format, Prestwick library screening
One experiment has as its system P. aeruginosa. It is filed as cell-based, Pseudomonas aeruginosa. As to conditions: 50 μM final drug concentration; for fold induction at 50 µM: Pseudomonas aeruginosa, 3 h.
In experiment [1] the test system is A. baumannii strain 98-37-09. It counts as cell-based, Acinetobacter baumannii. As to conditions: 50 μM final drug concentration; for fold induction at 50 µM: Acinetobacter baumannii, 983709, 3 h.
The next experiment has as its system E. coli. It counts as cell-based, Escherichia coli. As to conditions: 50 μM final drug concentration; for fold induction at 50 µM: Escherichia coli, 3 h.
For another experiment, the system named is E. faecium. It is filed as cell-based, Enterococcus faecium. As to conditions: 50 μM final drug concentration; for fold induction at 50 µM: Enterococcus faecium, 3 h.
Another experiment relates to E. cloacae. It is filed as cell-based, Enterobacter cloacae. As to conditions: 50 μM final drug concentration; for fold induction at 50 µM: Enterobacter cloacae, 3 h.
Experiment [2] relates to S. aureus strain USA300-0114. It is filed as cell-based, Staphylococcus aureus. As to conditions: 50 μM final drug concentration; for fold induction at 50 µM: Staphylococcus aureus, USA300, 3 h.
Another experiment relates to K. pneumoniae. It counts as cell-based, Klebsiella pneumoniae. As to conditions: 50 μM final drug concentration; for fold induction at 50 µM: Klebsiella pneumoniae, 3 h.
The mark [3] stands for this setting: cutoff for positive-scoring molecules 3-fold increase.
[4] abbreviates: planktonic, cutoff for positive-scoring molecules 3-fold increase.

Regarding `CN1C(C(=O)Nc2ccccn2)=C(O)c2ccccc2S1(=O)=O` [Piroxicam], the fold induction at 50 µM with P. aeruginosa (planktonic P. aeruginosa, 384-well, cutoff for positive-scoring molecules 3-fold increase, read-out: AK-based Prestwick Library Screening Results: P. aeruginosa (increase in extracellular AK activity)) was 1.2; in experiment [1] (planktonic A. baumannii, 384-well, cutoff for positive-scoring molecules 3-fold increase, read-out: AK-based Prestwick Library Screening Results: A. baumannii (increase in extracellular AK activity)) it was 1; with E. coli (planktonic E. coli, 384-well, cutoff for positive-scoring molecules 3-fold increase, read-out: AK-based Prestwick Library Screening Results: E. coli (increase in extracellular AK activity)), 1.2; with E. faecium (planktonic E. faecium, 384-well, cutoff for positive-scoring molecules 3-fold increase, read-out: AK-based Prestwick Library Screening Results: E. faecium (increase in extracellular AK activity)), 1.1; with E. cloacae (planktonic E. cloacae, 384-well, cutoff for positive-scoring molecules 3-fold increase, read-out: AK-based Prestwick Library Screening Results: E. cloacae (increase in extracellular AK activity)), 1.4; in experiment [2] (planktonic S. aureus, 384-well, cutoff for positive-scoring molecules 3-fold increase, read-out: AK-based Prestwick Library Screening Results: S. aureus (increase in extracellular AK activity)), 1.4. Also, the fold induction at 50 µM in the experiment on K. pneumoniae (planktonic K. pneumoniae, 384-well, cutoff for positive-scoring molecules 3-fold increase, read-out: AK-based Prestwick Library Screening Results: K. pneumoniae (increase in extracellular AK activity)) turned out to be 1.

On to `CC(C)NC[C@@H](O)COc1ccc(CC(N)=O)cc1` [(R)-(+)-Atenolol], for which the “AK-based Prestwick Library Screening Results, P. aeruginosa (fold increase in extracellular AK activity)” value in the experiment on P. aeruginosa (setting [3]) worked out at 1.2. Moreover, the “AK-based Prestwick Library Screening Results, A. baumannii (fold increase in extracellular AK activity)” value in experiment [1] (setting [3]) worked out at 1.3. For the same molecule, in the experiment with E. coli (setting [3]), the “AK-based Prestwick Library Screening Results, E. coli (fold increase in extracellular AK activity)” value amounted to 1.3. Besides, the “AK-based Prestwick Library Screening Results, E. faecium (fold increase in extracellular AK activity)” value in the experiment with E. faecium (setting [3]) came to 1.0. Further, in the experiment on E. cloacae (setting [3]), the “AK-based Prestwick Library Screening Results, E. cloacae (fold increase in extracellular AK activity)” value amounted to 1.3. In experiment [2] (setting [3]), the “AK-based Prestwick Library Screening Results, S. aureus (fold increase in extracellular AK activity)” value is 1.2. In addition, the “AK-based Prestwick Library Screening Results, K. pneumoniae (fold increase in extracellular AK activity)” value in the experiment on K. pneumoniae (setting [3]) is 1.2.

Consider `CC(=O)O[C@]1(C(C)=O)CC[C@H]2[C@@H]3C=C(C)C4=CC(=O)CC[C@@H]4[C@H]3CC[C@@]21C` [Nomegestrol acetate], for which the fold induction at 50 µM came out at 1.1 with P. aeruginosa (planktonic P. aeruginosa, positive cutoff 3-fold increase, read-out: AK-based Prestwick library screening result, P. aeruginosa (fold increase in extracellular AK activity)); 1.1 in experiment [1] (planktonic A. baumannii, positive cutoff 3-fold increase, read-out: AK-based Prestwick library screening result, A. baumannii (fold increase in extracellular AK activity)); 1.1 with E. coli (planktonic E. coli, positive cutoff 3-fold increase, read-out: AK-based Prestwick library screening result, E. coli (fold increase in extracellular AK activity)); 1.2 in the experiment on E. faecium (planktonic E. faecium, positive cutoff 3-fold increase, read-out: AK-based Prestwick library screening result, E. faecium (fold increase in extracellular AK activity)); 1.5 with E. cloacae (planktonic E. cloacae, positive cutoff 3-fold increase, read-out: AK-based Prestwick library screening result, E. cloacae (fold increase in extracellular AK activity)); 1 in experiment [2] (planktonic S. aureus, positive cutoff 3-fold increase, read-out: AK-based Prestwick library screening result, S. aureus (fold increase in extracellular AK activity)). The fold induction at 50 µM with K. pneumoniae (planktonic K. pneumoniae, positive cutoff 3-fold increase, read-out: AK-based Prestwick library screening result, K. pneumoniae (fold increase in extracellular AK activity)) turned out to be 1.1.

For `Cc1nc2n(c(=O)c1CCN1CCC(c3noc4cc(F)ccc34)CC1)CCCC2` [Risperidone], the fold induction at 50 µM in the experiment with P. aeruginosa (planktonic P. aeruginosa, […], read-out: AK-based Prestwick library screening result, P. aeruginosa (fold increase in extracellular AK activity)) amounted to 1.1; in experiment [1] (planktonic A. baumannii, […], read-out: AK-based Prestwick library screening result, A. baumannii (fold increase in extracellular AK activity)) it was 1.5; in the experiment with E. coli (planktonic E. coli, […], read-out: AK-based Prestwick library screening result, E. coli (fold increase in extracellular AK activity)), 1.1; in the experiment with E. faecium (planktonic E. faecium, […], read-out: AK-based Prestwick library screening result, E. faecium (fold increase in extracellular AK activity)), 1; in the experiment on E. cloacae (planktonic E. cloacae, […], read-out: AK-based Prestwick library screening result, E. cloacae (fold increase in extracellular AK activity)), 1.3; in experiment [2] (planktonic S. aureus, […], read-out: AK-based Prestwick library screening result, S. aureus (fold increase in extracellular AK activity)), 1.3. The fold induction at 50 µM in the experiment with K. pneumoniae (planktonic K. pneumoniae, […], read-out: AK-based Prestwick library screening result, K. pneumoniae (fold increase in extracellular AK activity)) is 1.1.

Turning to Foliosidine, the “AK-based Prestwick Library Screening Results, P. aeruginosa (fold increase in extracellular AK activity)” value with P. aeruginosa (setting [4]) stood at 0.8. Moreover, in experiment [1] (setting [4]), the “AK-based Prestwick Library Screening Results, A. baumannii (fold increase in extracellular AK activity)” value is listed as 0.8. In the experiment with E. coli (planktonic, […]), the “AK-based Prestwick Library Screening Results, E. coli (fold increase in extracellular AK activity)” value is given as 0.9. Also, in the experiment on E. faecium (setting [4]), the “AK-based Prestwick Library Screening Results, E. faecium (fold increase in extracellular AK activity)” value was determined as 0.9. In addition, the “AK-based Prestwick Library Screening Results, E. cloacae (fold increase in extracellular AK activity)” value with E. cloacae (setting [4]) was determined as 1.0. Also, the “AK-based Prestwick Library Screening Results, S. aureus (fold increase in extracellular AK activity)” value in experiment [2] (setting [4]) is 0.7. In the experiment on K. pneumoniae (setting [4]), the “AK-based Prestwick Library Screening Results, K. pneumoniae (fold increase in extracellular AK activity)” value is listed as 0.8.

On to Trimeprazine tartrate, for which the “AK-based Prestwick Library Screening Results, P. aeruginosa (fold increase in extracellular AK activity)” value in the experiment with P. aeruginosa (setting [3]) is listed as 1.2. Besides, the “AK-based Prestwick Library Screening Results, A. baumannii (fold increase in extracellular AK activity)” value in experiment [1] (setting [3]) is recorded as 1.1. Further, the “AK-based Prestwick Library Screening Results, E. coli (fold increase in extracellular AK activity)” value in the experiment with E. coli (setting [3]) amounted to 1.2. Further, the “AK-based Prestwick Library Screening Results, E. faecium (fold increase in extracellular AK activity)” value in the experiment on E. faecium (setting [3]) was 1.0. For the same molecule, in the experiment with E. cloacae (setting [3]), the “AK-based Prestwick Library Screening Results, E. cloacae (fold increase in extracellular AK activity)” value turned out to be 1.5. Also, in experiment [2] (setting [3]), the “AK-based Prestwick Library Screening Results, S. aureus (fold increase in extracellular AK activity)” value was determined as 1.1. For the same molecule, in the experiment on K. pneumoniae (setting [3]), the “AK-based Prestwick Library Screening Results, K. pneumoniae (fold increase in extracellular AK activity)” value is reported as 0.9.

In the case of `c1ccc2c(CC3=NCCN3)cccc2c1` [Naphazoline hydrochloride], the fold induction at 50 µM in the experiment on P. aeruginosa (384-well format, cutoff for positive-scoring molecules 3-fold increase, read-out: AK-based Prestwick Library Screening Results, P. aeruginosa (increase in extracellular AK activity)) came to 1; in experiment [1] (384-well format, cutoff for positive-scoring molecules 3-fold increase, read-out: AK-based Prestwick Library Screening Results, A. baumannii (increase in extracellular AK activity)), 1.1; in the experiment with E. coli (384-well format, cutoff for positive-scoring molecules 3-fold increase, read-out: AK-based Prestwick Library Screening Results, E. coli (increase in extracellular AK activity)), 1.3; in the experiment on E. faecium (384-well format, cutoff for positive-scoring molecules 3-fold increase, read-out: AK-based Prestwick Library Screening Results, E. faecium (increase in extracellular AK activity)) it was 1.1; with E. cloacae (384-well format, cutoff for positive-scoring molecules 3-fold increase, read-out: AK-based Prestwick Library Screening Results, E. cloacae (increase in extracellular AK activity)), 1.5; in experiment [2] (384-well format, cutoff for positive-scoring molecules 3-fold increase, read-out: AK-based Prestwick Library Screening Results, S. aureus (increase in extracellular AK activity)) it was 1. Besides, the fold induction at 50 µM with K. pneumoniae (384-well format, cutoff for positive-scoring molecules 3-fold increase, read-out: AK-based Prestwick Library Screening Results, K. pneumoniae (increase in extracellular AK activity)) was 0.8.

Take `CCC1(c2ccc(N)cc2)CCC(=O)NC1=O` (stereo not drawn) [Glutethimide, para-amino]: in the experiment with P. aeruginosa (384-well format, […]), the “AK-based Prestwick Library Screening Results, P. aeruginosa (increase in extracellular AK activity)” value was 0.6. Moreover, in experiment [1] (384-well format, […]), the “AK-based Prestwick Library Screening Results, A. baumannii (increase in extracellular AK activity)” value is reported as 0.6. Moreover, the “AK-based Prestwick Library Screening Results, E. coli (increase in extracellular AK activity)” value with E. coli (384-well format, […]) came out at 0.5. Besides, the “AK-based Prestwick Library Screening Results, E. faecium (increase in extracellular AK activity)” value in the experiment on E. faecium (384-well format, […]) came to 0.9. For the same molecule, the “AK-based Prestwick Library Screening Results, E. cloacae (increase in extracellular AK activity)” value in the experiment on E. cloacae (384-well format, […]) was found to be 0.5. In experiment [2] (384-well format, […]), the “AK-based Prestwick Library Screening Results, S. aureus (increase in extracellular AK activity)” value came out at 0.5. For the same molecule, the “AK-based Prestwick Library Screening Results, K. pneumoniae (increase in extracellular AK activity)” value with K. pneumoniae (384-well format, […]) amounted to 0.6.

As to `COc1ccc2cc3[n+](cc2c1OC)CCc1cc2c(cc1-3)OCO2` [Berberine chloride], the fold induction at 50 µM in the experiment with P. aeruginosa (planktonic P. aeruginosa, cutoff for positive-scoring molecules 3-fold increase, read-out: AK-based Prestwick Library Screening Results, P. aeruginosa (increase in extracellular AK activity)) amounted to 0.9; in experiment [1] (planktonic A. baumannii, cutoff for positive-scoring molecules 3-fold increase, read-out: AK-based Prestwick Library Screening Results, A. baumannii (increase in extracellular AK activity)) it was 0.9; with E. coli (planktonic E. coli, cutoff for positive-scoring molecules 3-fold increase, read-out: AK-based Prestwick Library Screening Results, E. coli (increase in extracellular AK activity)), 1; in the experiment on E. faecium (planktonic E. faecium, cutoff for positive-scoring molecules 3-fold increase, read-out: AK-based Prestwick Library Screening Results, E. faecium (increase in extracellular AK activity)), 1; with E. cloacae (planktonic E. cloacae, cutoff for positive-scoring molecules 3-fold increase, read-out: AK-based Prestwick Library Screening Results, E. cloacae (increase in extracellular AK activity)), 1.1; in experiment [2] (planktonic S. aureus, cutoff for positive-scoring molecules 3-fold increase, read-out: AK-based Prestwick Library Screening Results, S. aureus (increase in extracellular AK activity)), 0.7. Besides, the fold induction at 50 µM in the experiment with K. pneumoniae (planktonic K. pneumoniae, cutoff for positive-scoring molecules 3-fold increase, read-out: AK-based Prestwick Library Screening Results, K. pneumoniae (increase in extracellular AK activity)) was 0.7.
